Measurements: the NIST ThermoML archive (doi:10.1007/s10765-011-1052-5)
“And” between values parts separate entries of the source, which are not always exact repeats. Equal values may be shown once. ± gives the expanded uncertainty stated by the source.

Settings: Fluid (supercritical or subcritical phases), Hot wire method

[He] [helium]
thermal conductivity (323.19 K, 5030 kPa): 0.1676 ± 0.0038 W/m/K | thermal conductivity (323.19 K, 10055 kPa): 0.1696 ± 0.0038 W/m/K and 0.1695 ± 0.0038 W/m/K and 0.1694 ± 0.0038 W/m/K | thermal conductivity (323.19 K, 29885 kPa): 0.1784 ± 0.004 W/m/K and 0.1786 ± 0.004 W/m/K | thermal conductivity (323.19 K, 29886 kPa): 0.1782 ± 0.004 W/m/K | thermal conductivity (323.19 K, 29887 kPa): 0.1783 ± 0.004 W/m/K | thermal conductivity (323.2 K, 5030 kPa): 0.1674 ± 0.0038 W/m/K and 0.1675 ± 0.0038 W/m/K and 0.1677 ± 0.0038 W/m/K | thermal conductivity (323.21 K, 50067 kPa): 0.187 ± 0.0042 W/m/K | thermal conductivity (323.21 K, 50070 kPa): 0.1872 ± 0.0042 W/m/K | thermal conductivity (323.21 K, 50072 kPa): 0.1872 ± 0.0042 W/m/K | thermal conductivity (323.21 K, 50075 kPa): 0.187 ± 0.0042 W/m/K | thermal conductivity (323.21 K, 70102 kPa): 0.196 ± 0.0044 W/m/K | thermal conductivity (323.21 K, 70105 kPa): 0.196 ± 0.0044 W/m/K | thermal conductivity (323.21 K, 70109 kPa): 0.1961 ± 0.0044 W/m/K | thermal conductivity (323.21 K, 70112 kPa): 0.1964 ± 0.0044 W/m/K | thermal conductivity (323.21 K, 98251 kPa): 0.2089 ± 0.0047 W/m/K | thermal conductivity (323.21 K, 98254 kPa): 0.2085 ± 0.0047 W/m/K | thermal conductivity (323.21 K, 98259 kPa): 0.2085 ± 0.0047 W/m/K | thermal conductivity (323.21 K, 98263 kPa): 0.2086 ± 0.0047 W/m/K | thermal conductivity (373.22 K, 5137 kPa): 0.1853 ± 0.0042 W/m/K | thermal conductivity (373.22 K, 30213 kPa): 0.1948 ± 0.0044 W/m/K | thermal conductivity (373.22 K, 30214 kPa): 0.1948 ± 0.0044 W/m/K and 0.1945 ± 0.0044 W/m/K | thermal conductivity (373.22 K, 49990 kPa): 0.2028 ± 0.0045 W/m/K | thermal conductivity (373.22 K, 49992 kPa): 0.2028 ± 0.0045 W/m/K | thermal conductivity (373.22 K, 49994 kPa): 0.2033 ± 0.0046 W/m/K | thermal conductivity (373.23 K, 5137 kPa): 0.185 ± 0.0042 W/m/K and 0.1845 ± 0.0041 W/m/K | thermal conductivity (373.23 K, 10114 kPa): 0.1866 ± 0.0042 W/m/K and 0.1868 ± 0.0042 W/m/K | thermal conductivity (373.23 K, 69936 kPa): 0.2139 ± 0.0048 W/m/K and 0.2138 ± 0.0048 W/m/K | thermal conductivity (373.23 K, 69937 kPa): 0.214 ± 0.0048 W/m/K | thermal conductivity (373.23 K, 97514 kPa): 0.2284 ± 0.0051 W/m/K | thermal conductivity (373.23 K, 97516 kPa): 0.2277 ± 0.0051 W/m/K | thermal conductivity (373.23 K, 97527 kPa): 0.2275 ± 0.0051 W/m/K | thermal conductivity (473.27 K, 5260 kPa): 0.2166 ± 0.0049 W/m/K | thermal conductivity (473.27 K, 5261 kPa): 0.2169 ± 0.0049 W/m/K | thermal conductivity (473.27 K, 10172 kPa): 0.2187 ± 0.0049 W/m/K and 0.2183 ± 0.0049 W/m/K | thermal conductivity (473.27 K, 10173 kPa): 0.2193 ± 0.0049 W/m/K | thermal conductivity (473.27 K, 50076 kPa): 0.2321 ± 0.0052 W/m/K | thermal conductivity (473.27 K, 50078 kPa): 0.2322 ± 0.0052 W/m/K | thermal conductivity (473.27 K, 50080 kPa): 0.2317 ± 0.0052 W/m/K | thermal conductivity (473.27 K, 70131 kPa): 0.2428 ± 0.0054 W/m/K | thermal conductivity (473.27 K, 70135 kPa): 0.2422 ± 0.0054 W/m/K | thermal conductivity (473.27 K, 70138 kPa): 0.2419 ± 0.0054 W/m/K | thermal conductivity (473.27 K, 99148 kPa): 0.2558 ± 0.0057 W/m/K | thermal conductivity (473.27 K, 99151 kPa): 0.2549 ± 0.0057 W/m/K | thermal conductivity (473.27 K, 99156 kPa): 0.2552 ± 0.0057 W/m/K | thermal conductivity (473.28 K, 5261 kPa): 0.2173 ± 0.0049 W/m/K | thermal conductivity (473.28 K, 30084 kPa): 0.2252 ± 0.005 W/m/K | thermal conductivity (473.28 K, 30085 kPa): 0.2251 ± 0.005 W/m/K and 0.226 ± 0.0051 W/m/K | thermal conductivity (473.29 K, 99160 kPa): 0.2472 ± 0.0055 W/m/K | thermal conductivity (573.24 K, 30146 kPa): 0.2549 ± 0.0057 W/m/K | thermal conductivity (573.24 K, 50100 kPa): 0.2618 ± 0.0059 W/m/K | thermal conductivity (573.24 K, 70129 kPa): 0.2675 ± 0.006 W/m/K | thermal conductivity (573.24 K, 97066 kPa): 0.2798 ± 0.0063 W/m/K | thermal conductivity (573.24 K, 97071 kPa): 0.2805 ± 0.0063 W/m/K | thermal conductivity (573.24 K, 97072 kPa): 0.2792 ± 0.0063 W/m/K | thermal conductivity (573.25 K, 5197 kPa): 0.2478 ± 0.0056 W/m/K | thermal conductivity (573.25 K, 5199 kPa): 0.2472 ± 0.0055 W/m/K | thermal conductivity (573.25 K, 5200 kPa): 0.2477 ± 0.0055 W/m/K | thermal conductivity (573.25 K, 10292 kPa): 0.2503 ± 0.0056 W/m/K | thermal conductivity (573.25 K, 10294 kPa): 0.2496 ± 0.0056 W/m/K | thermal conductivity (573.25 K, 10295 kPa): 0.2496 ± 0.0056 W/m/K | thermal conductivity (573.25 K, 30146 kPa): 0.2552 ± 0.0057 W/m/K | thermal conductivity (573.25 K, 30149 kPa): 0.2558 ± 0.0057 W/m/K | thermal conductivity (573.25 K, 50095 kPa): 0.2609 ± 0.0058 W/m/K | thermal conductivity (573.25 K, 50100 kPa): 0.2599 ± 0.0058 W/m/K | thermal conductivity (573.25 K, 70160 kPa): 0.268 ± 0.006 W/m/K | thermal conductivity (573.25 K, 70165 kPa): 0.2662 ± 0.006 W/m/K | thermal conductivity (672.87 K, 98224 kPa): 0.3057 ± 0.0068 W/m/K | thermal conductivity (672.87 K, 98230 kPa): 0.3055 ± 0.0068 W/m/K | thermal conductivity (672.87 K, 98231 kPa): 0.3054 ± 0.0068 W/m/K | thermal conductivity (672.88 K, 30064 kPa): 0.2852 ± 0.0064 W/m/K | thermal conductivity (672.88 K, 30085 kPa): 0.2823 ± 0.0063 W/m/K | thermal conductivity (672.88 K, 50184 kPa): 0.2882 ± 0.0065 W/m/K | thermal conductivity (672.88 K, 70068 kPa): 0.293 ± 0.0066 W/m/K | thermal conductivity (672.88 K, 70074 kPa): 0.2949 ± 0.0066 W/m/K | thermal conductivity (672.88 K, 70081 kPa): 0.2948 ± 0.0066 W/m/K | thermal conductivity (672.89 K, 5417 kPa): 0.2774 ± 0.0062 W/m/K | thermal conductivity (672.89 K, 10409 kPa): 0.2788 ± 0.0062 W/m/K | thermal conductivity (672.89 K, 10412 kPa): 0.279 ± 0.0062 W/m/K | thermal conductivity (672.89 K, 10414 kPa): 0.2784 ± 0.0062 W/m/K | thermal conductivity (672.89 K, 30054 kPa): 0.2843 ± 0.0064 W/m/K | thermal conductivity (672.89 K, 50178 kPa): 0.2895 ± 0.0065 W/m/K | thermal conductivity (672.89 K, 50182 kPa): 0.2888 ± 0.0065 W/m/K | thermal conductivity (672.9 K, 5413 kPa): 0.2765 ± 0.0062 W/m/K | thermal conductivity (672.9 K, 5416 kPa): 0.277 ± 0.0062 W/m/K | thermal conductivity (771.89 K, 50118 kPa): 0.3162 ± 0.0071 W/m/K | thermal conductivity (771.89 K, 50125 kPa): 0.3184 ± 0.0071 W/m/K | thermal conductivity (771.89 K, 50128 kPa): 0.3182 ± 0.0071 W/m/K | thermal conductivity (771.89 K, 70299 kPa): 0.3237 ± 0.0072 W/m/K | thermal conductivity (771.89 K, 70303 kPa): 0.3173 ± 0.0071 W/m/K | thermal conductivity (771.89 K, 70305 kPa): 0.3224 ± 0.0072 W/m/K | thermal conductivity (771.89 K, 99452 kPa): 0.3302 ± 0.0074 W/m/K | thermal conductivity (771.89 K, 99460 kPa): 0.3299 ± 0.0074 W/m/K | thermal conductivity (771.89 K, 99462 kPa): 0.3321 ± 0.0074 W/m/K | thermal conductivity (771.9 K, 30345 kPa): 0.3126 ± 0.007 W/m/K | thermal conductivity (771.9 K, 30348 kPa): 0.3102 ± 0.0069 W/m/K | thermal conductivity (771.9 K, 30350 kPa): 0.313 ± 0.007 W/m/K | thermal conductivity (771.91 K, 10197 kPa): 0.3094 ± 0.0069 W/m/K | thermal conductivity (771.91 K, 10199 kPa): 0.3093 ± 0.0069 W/m/K | thermal conductivity (771.92 K, 5204 kPa): 0.3065 ± 0.0069 W/m/K | thermal conductivity (771.93 K, 3005 kPa): 0.3046 ± 0.0068 W/m/K | thermal conductivity (771.93 K, 3008 kPa): 0.3049 ± 0.0068 W/m/K | thermal conductivity (771.93 K, 5202 kPa): 0.3079 ± 0.0069 W/m/K | thermal conductivity (771.94 K, 1059 kPa): 0.2998 ± 0.0067 W/m/K | thermal conductivity (771.94 K, 1068 kPa): 0.3028 ± 0.0068 W/m/K | thermal conductivity (771.94 K, 1071 kPa): 0.3022 ± 0.0068 W/m/K | thermal conductivity (771.94 K, 1074 kPa): 0.304 ± 0.0068 W/m/K | thermal conductivity (771.94 K, 3001 kPa): 0.3012 ± 0.0067 W/m/K | thermal conductivity (771.94 K, 3003 kPa): 0.3055 ± 0.0068 W/m/K
